# Measured values published in patent publication US20230085307A1, “PYRIDAZINONE COMPOUND AND HERBICIDE” (NISSAN CHEMICAL CORPORATION, priority 2019, published 2023).
# Experiments:
# Japanese bulrush [1] = assay: Test Example 1: herbicidal activity, application before weed generation under submerged conditions (Table 16, symbol B); assay type: in vivo, Japanese bulrush (Schoenoplectus juncoides); conditions: amount of applied herbicide 320 g/ha
# How it was run: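 Submerged Wagner pots (alluvial soil, 4 cm water) sown with weed seeds and planted with 2.5-leaf rice seedlings; emulsifiable concentrate diluted in water applied to water surface on sowing day. Held in greenhouse at 25-30 °C; injury scored 0-5 by herbicidal rate after three weeks.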
# late watergrass = assay: Test Example 2: herbicidal activity, application during weed generation under submerged conditions (Table 17, symbol A); assay type: in vivo, late watergrass (Echinochloa oryzicola); conditions: for herbicidal effect rating, A: late watergrass: AAH 320 g/ha, application during weed generation, submerged conditions; for herbicidal effect grade, A: late watergrass: application during weed generation under submerged conditions, amount of applied herbicide 320 g/ha
# How it was run: (§1)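 Herbicide emulsion, diluted with water to the chosen amount, is applied onto 4 cm floodwater over alluvial soil where the weeds were co-sown and raised at 25–30° C. Application timing: 1–2 leaves. Assessment: three weeks afterwards.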
# Japanese bulrush [2] = assay: Test Example 2: herbicidal activity, application during weed generation under submerged conditions (Table 17, symbol B); assay type: in vivo, Japanese bulrush (Schoenoplectus juncoides); conditions: for herbicidal effect rating, B: Japanese bulrush: AAH 320 g/ha, application during weed generation, submerged conditions; for herbicidal effect grade, B: Japanese bulrush: application during weed generation under submerged conditions, amount of applied herbicide 320 g/ha
# How it was run: as §1
# oval-leafed pondweed = assay: Test Example 2: herbicidal activity, application during weed generation under submerged conditions (Table 17, symbol C); assay type: in vivo, oval-leafed pondweed (Monochoria vaginalis); conditions: for herbicidal effect rating, C: oval-leafed pondweed: AAH 320 g/ha, application during weed generation, submerged conditions; for herbicidal effect grade, C: oval-leafed pondweed: application during weed generation under submerged conditions, amount of applied herbicide 320 g/ha
# How it was run: as §1
# rice flat sedge = assay: Test Example 3: herbicidal effect by foliage application, Wagner pot (Table 18, symbol E); assay type: in vivo, rice flat sedge (Cyperus iria); conditions: amount of applied herbicide 320 g/ha
# How it was run: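 Plants were sown in alluvial soil held under 0.1–0.5 cm standing water and grown 14 days in a greenhouse at 25–30 °C. An emulsifiable formulation, water-diluted to the set dose, was then sprayed onto the foliage, and effects were scored three weeks later using previously defined criteria.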
# southern crabgrass = assay: Test Example 4: herbicidal effect by soil treatment (Table 19, symbol F); assay type: in vivo, southern crabgrass (Digitaria ciliaris); conditions: amount of applied herbicide 320 g/ha
# How it was run: (§2)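 Applied as a water-diluted emulsion, the compound was sprayed onto soil covering newly sown seeds. Evaluation came three weeks after application, in a greenhouse held at 25° C. to 30° C.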
# green foxtail = assay: Test Example 4: herbicidal effect by soil treatment (Table 19, symbol G); assay type: in vivo, green foxtail (Setaria viridis); conditions: amount of applied herbicide 320 g/ha
# How it was run: as §2
# wild oat [3] = assay: Test Example 4: herbicidal effect by soil treatment (Table 19, symbol I); assay type: in vivo, wild oat (Avena fatua); conditions: amount of applied herbicide 320 g/ha
# How it was run: as §2
# blackgrass [4] = assay: Test Example 4: herbicidal effect by soil treatment (Table 19, symbol J); assay type: in vivo, blackgrass (Alopecurus myosuroides); conditions: amount of applied herbicide 320 g/ha
# How it was run: as §2
# velvetleaf = assay: Test Example 4: herbicidal effect by soil treatment (Table 19, symbol M); assay type: in vivo, velvetleaf (Abutilon theophrasti); conditions: amount of applied herbicide 320 g/ha
# How it was run: as §2
# redroot pigweed [5] = assay: Test Example 4: herbicidal effect by soil treatment (Table 19, symbol N); assay type: in vivo, redroot pigweed (Amaranthus retroflexus); conditions: amount of applied herbicide 320 g/ha
# How it was run: as §2
# chickweed [6] = assay: Test Example 4: herbicidal effect by soil treatment (Table 19, symbol P); assay type: in vivo, common chickweed (Stellaria media); conditions: amount of applied herbicide 320 g/ha
# How it was run: as §2
# barnyard grass = assay: Test Example 5: herbicidal effect by foliage application, plastic box (Table 20, symbol H); assay type: in vivo, barnyard grass (Echinochloa crus-galli); conditions: foliage application, 320 g/ha, evaluated 3 weeks after application
# How it was run: (§3)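 Sow seeds spot-wise in sterilized diluvial soil; cover with ~1.5 cm soil. Grow 14 days in greenhouse, 25° C. to 30° C. Spray foliage with emulsion diluted to predetermined amount. Rate effect after 3 weeks.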
# wild oat [7] = assay: Test Example 5: herbicidal effect by foliage application, plastic box (Table 20, symbol I); assay type: in vivo, wild oat (Avena fatua); conditions: foliage application, 320 g/ha, evaluated 3 weeks after application
# How it was run: as §3
# blackgrass [8] = assay: Test Example 5: herbicidal effect by foliage application, plastic box (Table 20, symbol J); assay type: in vivo, blackgrass (Alopecurus myosuroides); conditions: foliage application, 320 g/ha, evaluated 3 weeks after application
# How it was run: as §3
# redroot pigweed [9] = assay: Test Example 5: herbicidal effect by foliage application, plastic box (Table 20, symbol N); assay type: in vivo, redroot pigweed (Amaranthus retroflexus); conditions: foliage application, 320 g/ha, evaluated 3 weeks after application
# How it was run: as §3
# chickweed [10] = assay: Test Example 5: herbicidal effect by foliage application, plastic box (Table 20, symbol P); assay type: in vivo, common chickweed (Stellaria media); conditions: foliage application, 320 g/ha, evaluated 3 weeks after application
# How it was run: as §3
SMILES,"Herbicidal effect, B: Japanese bulrush (Japanese bulrush [1])","herbicidal effect rating, A: late watergrass (late watergrass)","herbicidal effect rating, B: Japanese bulrush (Japanese bulrush [2])","herbicidal effect rating, C: oval-leafed pondweed (oval-leafed pondweed)","Herbicidal effect on E (rice flat sedge), foliage application (rice flat sedge)","F: southern crabgrass, herbicidal effect grade (southern crabgrass)","G: green foxtail, herbicidal effect grade (green foxtail)","I: wild oat, herbicidal effect grade (wild oat [3])","J: blackgrass, herbicidal effect grade (blackgrass [4])","M: velvetleaf, herbicidal effect grade (velvetleaf)","N: redroot pigweed, herbicidal effect grade (redroot pigweed [5])","P: chickweed, herbicidal effect grade (chickweed [6])",H (barnyard grass) herbicidal effect grade (barnyard grass),I (wild oat) herbicidal effect grade (wild oat [7]),J (blackgrass) herbicidal effect grade (blackgrass [8]),N (redroot pigweed) herbicidal effect grade (redroot pigweed [9]),P (chickweed) herbicidal effect grade (chickweed [10]),"herbicidal effect grade, A: late watergrass (late watergrass)","herbicidal effect grade, B: Japanese bulrush (Japanese bulrush [2])","herbicidal effect grade, C: oval-leafed pondweed (oval-leafed pondweed)"
COCCOc1ccc(-c2oc3ccc(F)cc3c2-c2c(O)c(C)nn(C)c2=O)cc1 [9-045],5 (Herbicidal rate of 90% or more (almost completely withered)),3 (Herbicidal rate of 40% or more and less than 70%),3 (Herbicidal rate of 40% or more and less than 70%),5 (Herbicidal rate of 90% or more (almost completely withered)),5 (Herbicidal rate of 90% or more (almost completely withered)),5 (Herbicidal rate of 90% or more (almost completely withered)),5 (Herbicidal rate of 90% or more (almost completely withered)),0 (Herbicidal rate of 5% or less (almost no effect)),5 (Herbicidal rate of 90% or more (almost completely withered)),5 (Herbicidal rate of 90% or more (almost completely withered)),5 (Herbicidal rate of 90% or more (almost completely withered)),1 (Herbicidal rate of 5% or more and less than 20%),5 (Herbicidal rate of 90% or more (almost completely withered)),2 (Herbicidal rate of 20% or more and less than 40%),5 (Herbicidal rate of 90% or more (almost completely withered)),5 (Herbicidal rate of 90% or more (almost completely withered)),5 (Herbicidal rate of 90% or more (almost completely withered)),,,
CCCOc1ccc(-c2oc3ccc(C)cc3c2-c2c(O)c(C)nn(C)c2=O)cc1 [9-049],5 (Herbicidal rate of 90% or more (almost completely withered)),5 (Herbicidal rate of 90% or more (almost completely withered)),4 (Herbicidal rate of 70% or more and less than 90%),4 (Herbicidal rate of 70% or more and less than 90%),3 (Herbicidal rate of 40% or more and less than 70%),4 (Herbicidal rate of 70% or more and less than 90%),4 (Herbicidal rate of 70% or more and less than 90%),0 (Herbicidal rate of 5% or less (almost no effect)),0 (Herbicidal rate of 5% or less (almost no effect)),3 (Herbicidal rate of 40% or more and less than 70%),5 (Herbicidal rate of 90% or more (almost completely withered)),4 (Herbicidal rate of 70% or more and less than 90%),5 (Herbicidal rate of 90% or more (almost completely withered)),0 (Herbicidal rate of 5% or less (almost no effect)),4 (Herbicidal rate of 70% or more and less than 90%),5 (Herbicidal rate of 90% or more (almost completely withered)),5 (Herbicidal rate of 90% or more (almost completely withered)),,,
CCCC(=O)Oc1c(C)nn(C)c(=O)c1-c1c(-c2ccc(SCC)cc2)oc2ccc(C)cc12 [9-058],5 (Herbicidal rate of 90% or more (almost completely withered)),,,,5 (Herbicidal rate of 90% or more (almost completely withered)),5 (Herbicidal rate of 90% or more (almost completely withered)),5 (Herbicidal rate of 90% or more (almost completely withered)),0 (Herbicidal rate of 5% or less (almost no effect)),0 (Herbicidal rate of 5% or less (almost no effect)),3 (Herbicidal rate of 40% or more and less than 70%),5 (Herbicidal rate of 90% or more (almost completely withered)),3 (Herbicidal rate of 40% or more and less than 70%),4 (Herbicidal rate of 70% or more and less than 90%),2 (Herbicidal rate of 20% or more and less than 40%),3 (Herbicidal rate of 40% or more and less than 70%),5 (Herbicidal rate of 90% or more (almost completely withered)),5 (Herbicidal rate of 90% or more (almost completely withered)),4 (Herbicidal rate of 70% or more and less than 90%),3 (Herbicidal rate of 40% or more and less than 70%),4 (Herbicidal rate of 70% or more and less than 90%)
Cc1ccc2oc(-c3ccc(SC(C)C)cc3)c(-c3c(O)c(C)nn(C)c3=O)c2c1 [9-059],3 (Herbicidal rate of 40% or more and less than 70%),,,,5 (Herbicidal rate of 90% or more (almost completely withered)),0 (Herbicidal rate of 5% or less (almost no effect)),3 (Herbicidal rate of 40% or more and less than 70%),0 (Herbicidal rate of 5% or less (almost no effect)),0 (Herbicidal rate of 5% or less (almost no effect)),3 (Herbicidal rate of 40% or more and less than 70%),5 (Herbicidal rate of 90% or more (almost completely withered)),5 (Herbicidal rate of 90% or more (almost completely withered)),3 (Herbicidal rate of 40% or more and less than 70%),3 (Herbicidal rate of 40% or more and less than 70%),1 (Herbicidal rate of 5% or more and less than 20%),5 (Herbicidal rate of 90% or more (almost completely withered)),5 (Herbicidal rate of 90% or more (almost completely withered)),4 (Herbicidal rate of 70% or more and less than 90%),3 (Herbicidal rate of 40% or more and less than 70%),4 (Herbicidal rate of 70% or more and less than 90%)
